System: 931267-113-T-J1-PDC KRAS spheroid with HUVEC/MSC, viability
Assay: Anticancer human tumor 931267-113-T-J1-PDC patient-derived colon adenocarcinoma cell line growth inhibition [KRAS2]
Details: for IC50: curve of first compound; for viability, T/C: stronger effect = lower value
Method in brief: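 Combination screen of spheroid viability in tumor-cell co-cultures with endothelial (HUVEC) and mesenchymal stem cell stroma. Each agent was tested in half-log dilutions, topping at clinical Cmax or at 10 microM without a known Cmax.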

[1] = second compound 0.1 µM, first compound 0.0316 µM
[2] = second compound 0.1 µM, first compound 0.1 µM
[3] = second compound 0.1 µM, first compound 0.316 µM
[4] = second compound 0.1 µM, first compound 1 µM
[5] = second compound 0.1 µM, first compound 3.16 µM
[6] = second compound 0.1 µM, first compound 10 µM
[7] = second compound 0.316 µM, first compound 0.0316 µM
[8] = second compound 0.316 µM, first compound 0.1 µM
[9] = second compound 0.316 µM, first compound 0.316 µM
[10] = second compound 0.316 µM, first compound 1 µM
[11] = second compound 0.316 µM, first compound 3.16 µM
[12] = second compound 0.316 µM, first compound 10 µM
[13] = second compound 1 µM, first compound 0.0316 µM
[14] = second compound 1 µM, first compound 0.1 µM
[15] = second compound 1 µM, first compound 0.316 µM
[16] = second compound 1 µM, first compound 1 µM
[17] = second compound 1 µM, first compound 3.16 µM
[18] = second compound 1 µM, first compound 10 µM
[19] = second compound 3.16 µM, first compound 0.0316 µM
[20] = second compound 3.16 µM, first compound 0.1 µM
[21] = second compound 3.16 µM, first compound 0.316 µM
[22] = second compound 3.16 µM, first compound 1 µM
[23] = second compound 3.16 µM, first compound 3.16 µM
[24] = second compound 3.16 µM, first compound 10 µM
[25] = second compound 10 µM, first compound 0.0316 µM
[26] = second compound 10 µM, first compound 0.1 µM
[27] = second compound 10 µM, first compound 0.316 µM
[28] = second compound 10 µM, first compound 1 µM
[29] = second compound 10 µM, first compound 3.16 µM
[30] = second compound 10 µM, first compound 10 µM
[31] = second compound 0.1 µM, first compound 0.01 µM
[32] = second compound 0.316 µM, first compound 0.01 µM
[33] = second compound 1 µM, first compound 0.01 µM
[34] = second compound 3.16 µM, first compound 0.01 µM
[35] = second compound 10 µM, first compound 0.01 µM
[36] = second compound 0.1 µM, first compound 0.00316 µM
[37] = second compound 0.316 µM, first compound 0.00316 µM
[38] = second compound 1 µM, first compound 0.00316 µM
[39] = second compound 3.16 µM, first compound 0.00316 µM
[40] = second compound 10 µM, first compound 0.00316 µM
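Note: compound exposure lasted 7 days before the readout.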
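Throughout, for viability, T/C: 100% = DMSO vehicle control viability.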

Compound | IC50 (second compound 0.1 µM) | IC50 (second compound 0.316 µM) | IC50 (second compound 1 µM) | IC50 (second compound 3.16 µM) | IC50 (second compound 10 µM) | viability, T/C [1] | viability, T/C [2] | viability, T/C [3] | viability, T/C [4] | viability, T/C [7] | viability, T/C [8] | viability, T/C [9] | viability, T/C [10] | viability, T/C [13] | viability, T/C [14] | viability, T/C [15] | viability, T/C [19] | viability, T/C [20] | viability, T/C [25] | viability, T/C [26] | also measured
CC(C)NCC(C(=O)N1CCN(c2ncnc3c2C(C)CC3O)CC1)c1ccc(Cl)cc1 (stereo not given) + COc1cc2nc(C)nc(NC(C)c3cc(N)cc(C(F)(F)F)c3)c2cc1OC1CCOC1 | > 10000 nM | 5270 nM | 4360 nM | 1620 nM | < 31.6 nM | 87.4% | 105% | 104% | 77.2% | 106% | 91.6% | 83.3% | 76.2% | 88% | 76.9% | 72.7% | 78.5% | 76.7% | 0.91% | 1.02% | viability, T/C [5]: 58.3%; viability, T/C [6]: 59.9%; viability, T/C [11]: 56%; viability, T/C [12]: 40.4%; viability, T/C [16]: 70.4%; viability, T/C [17]: 54%; viability, T/C [18]: 37.9%; viability, T/C [21]: 67.2%; viability, T/C [22]: 54.6%; viability, T/C [23]: 42.7%; viability, T/C [24]: 20.6%; viability, T/C [27]: 0.68%; viability, T/C [28]: 0.76%; viability, T/C [29]: 0.45%; viability, T/C [30]: 0.48%
CC1COCCN1c1cc(-c2ccnn2C)c2ccnc(-c3ccn[nH]3)c2n1 (stereo not given) + COc1cc2nc(C)nc(NC(C)c3cc(N)cc(C(F)(F)F)c3)c2cc1OC1CCOC1 | 45.2 nM | 43 nM | 27.9 nM | 33.3 nM | < 10 nM | 61.2% | 25% | 19.5% | 15.1% | 59.3% | 24.5% | 17.8% | 15.4% | 46.6% | 24.1% | 13.6% | 51.6% | 16.2% | 2.62% | 3.95% | viability, T/C [31]: 75.4%; viability, T/C [5]: 15.2%; viability, T/C [32]: 83.4%; viability, T/C [11]: 15.3%; viability, T/C [33]: 76.3%; viability, T/C [16]: 17.7%; viability, T/C [17]: 15.9%; viability, T/C [34]: 70.4%; viability, T/C [21]: 11.2%; viability, T/C [22]: 15%; viability, T/C [23]: 14%; viability, T/C [35]: 1.71%; viability, T/C [27]: 1.66%; viability, T/C [28]: 2.29%; viability, T/C [29]: 1.1%
CCN1CCN(Cc2ccc(Nc3ncc(F)c(-c4cc(F)c5nc(C)n(C(C)C)c5c4)n3)nc2)CC1 + COc1cc2nc(C)nc(NC(C)c3cc(N)cc(C(F)(F)F)c3)c2cc1OC1CCOC1 | 454 nM | 122 nM | 258 nM | 68 nM | < 3.16 nM | 62.5% | 74.7% | 45.5% | 45.9% | 72.2% | 51.2% | 47.2% | 37.4% | 76.3% | 56.4% | 53.2% | 49.7% | 48.8% | 2.06% | 3.4% | viability, T/C [36]: 86.4%; viability, T/C [31]: 86.8%; viability, T/C [37]: 80.6%; viability, T/C [32]: 90.1%; viability, T/C [38]: 78.7%; viability, T/C [33]: 78.1%; viability, T/C [16]: 42.7%; viability, T/C [39]: 74.5%; viability, T/C [34]: 67.2%; viability, T/C [21]: 42.4%; viability, T/C [22]: 27.1%; viability, T/C [40]: 3.71%; viability, T/C [35]: 1.83%; viability, T/C [27]: 1.38%; viability, T/C [28]: 0.23%
CCNC(=O)CC1N=C(c2ccc(Cl)cc2)c2cc(OC)ccc2-n2c(C)nnc21 (stereo not given) + COc1cc2nc(C)nc(NC(C)c3cc(N)cc(C(F)(F)F)c3)c2cc1OC1CCOC1 | 1760 nM | 711 nM | 634 nM | 506 nM | < 31.6 nM | 81.1% | 73.4% | 58.7% | 63.5% | 78.1% | 62.4% | 75.9% | 40.7% | 66.1% | 76.3% | 59.1% | 59.5% | 64.7% | 2.75% | 3.6% | viability, T/C [5]: 41.7%; viability, T/C [6]: 31.9%; viability, T/C [11]: 31.4%; viability, T/C [12]: 26.6%; viability, T/C [16]: 42.1%; viability, T/C [17]: 30.8%; viability, T/C [18]: 22.4%; viability, T/C [21]: 62.4%; viability, T/C [22]: 32.5%; viability, T/C [23]: 23.2%; viability, T/C [24]: 22%; viability, T/C [27]: 1.18%; viability, T/C [28]: 0.76%; viability, T/C [29]: 0.92%; viability, T/C [30]: 0.42%
Cn1nccc1Nc1nccc(-c2cc3c(s2)C(C)(C)N(CCN2CCOCC2)C3=O)n1 + COc1cc2nc(C)nc(NC(C)c3cc(N)cc(C(F)(F)F)c3)c2cc1OC1CCOC1 | 451 nM | 517 nM | 464 nM | 229 nM | < 31.6 nM | 80.2% | 95.3% | 54% | 29.5% | 84.6% | 88.2% | 62.7% | 31.2% | 79.8% | 73.6% | 62.6% | 71.3% | 68.4% | 3.64% | 2.94% | viability, T/C [5]: 9.12%; viability, T/C [6]: 3.49%; viability, T/C [11]: 4.2%; viability, T/C [12]: 2.13%; viability, T/C [16]: 26.2%; viability, T/C [17]: 8.33%; viability, T/C [18]: 2.61%; viability, T/C [21]: 42.4%; viability, T/C [22]: 15.5%; viability, T/C [23]: 3.42%; viability, T/C [24]: 2.28%; viability, T/C [27]: 2.42%; viability, T/C [28]: 1.97%; viability, T/C [29]: 0.91%; viability, T/C [30]: 0.28%
Cn1ncnc1[C@H]1c2n[nH]c(=O)c3cc(F)cc(c23)N[C@@H]1c1ccc(F)cc1 + COc1cc2nc(C)nc(NC(C)c3cc(N)cc(C(F)(F)F)c3)c2cc1OC1CCOC1 | > 100 nM | > 100 nM | > 100 nM | > 100 nM | < 0.316 nM | 88.5% | 74.4% |  |  | 92.4% | 77.9% |  |  | 83.4% | 95.4% |  | 63.5% | 52.4% | 0.75% | 1.25% | viability, T/C (second compound 0.1 µM, first compound 0.000316 µM): 103%; viability, T/C (second compound 0.1 µM, first compound 0.001 µM): 88.5%; viability, T/C [36]: 86.6%; viability, T/C [31]: 107%; viability, T/C (second compound 0.316 µM, first compound 0.000316 µM): 83.9%; viability, T/C (second compound 0.316 µM, first compound 0.001 µM): 108%; viability, T/C [37]: 83.6%; viability, T/C [32]: 96.3%; viability, T/C (second compound 1 µM, first compound 0.000316 µM): 108%; viability, T/C (second compound 1 µM, first compound 0.001 µM): 99.8%; viability, T/C [38]: 79.7%; viability, T/C [33]: 88.3%; viability, T/C (second compound 3.16 µM, first compound 0.000316 µM): 69.5%; viability, T/C (second compound 3.16 µM, first compound 0.001 µM): 87%; viability, T/C [39]: 61.6%; viability, T/C [34]: 67.6%; viability, T/C (second compound 10 µM, first compound 0.000316 µM): 0.8%; viability, T/C (second compound 10 µM, first compound 0.001 µM): 0.47%; viability, T/C [40]: 0.63%; viability, T/C [35]: 1.27%
